≈ marks a conversion by molar mass, not a printed value.
Key:
[1] = molecular target: T1, Adenosine receptor A3 (Homo sapiens) (UniProt P0DMS8); assay: Displacement of [3H]NECA from human recombinant adenosine A3 receptor expressed in human HeLa cell membrane at 10 uM; assay type: cell membranes
T1 sequence (whole entry): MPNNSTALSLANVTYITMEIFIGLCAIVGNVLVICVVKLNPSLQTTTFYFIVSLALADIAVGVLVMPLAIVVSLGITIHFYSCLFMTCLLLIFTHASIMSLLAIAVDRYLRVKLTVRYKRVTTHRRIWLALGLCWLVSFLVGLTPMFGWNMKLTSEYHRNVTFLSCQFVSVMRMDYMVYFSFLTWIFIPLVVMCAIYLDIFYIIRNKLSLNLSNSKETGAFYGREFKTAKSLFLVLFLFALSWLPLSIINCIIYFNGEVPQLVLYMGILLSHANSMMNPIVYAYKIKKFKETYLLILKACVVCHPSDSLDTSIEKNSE

[2] = Solubility in di(ethylene glycol); assay type: physicochemical
[3] = Solubility in glycerin; assay type: physicochemical
[4] = molecular target: Adenosine receptor A2a (Homo sapiens) (UniProt P29274); assay: Displacement of [3H]ZM241385 from human recombinant adenosine A2A receptor expressed in human HeLa cell membrane at 10 uM; assay type: cell membranes
Sequence of Adenosine receptor A2a (Homo sapiens) (P29274 whole entry): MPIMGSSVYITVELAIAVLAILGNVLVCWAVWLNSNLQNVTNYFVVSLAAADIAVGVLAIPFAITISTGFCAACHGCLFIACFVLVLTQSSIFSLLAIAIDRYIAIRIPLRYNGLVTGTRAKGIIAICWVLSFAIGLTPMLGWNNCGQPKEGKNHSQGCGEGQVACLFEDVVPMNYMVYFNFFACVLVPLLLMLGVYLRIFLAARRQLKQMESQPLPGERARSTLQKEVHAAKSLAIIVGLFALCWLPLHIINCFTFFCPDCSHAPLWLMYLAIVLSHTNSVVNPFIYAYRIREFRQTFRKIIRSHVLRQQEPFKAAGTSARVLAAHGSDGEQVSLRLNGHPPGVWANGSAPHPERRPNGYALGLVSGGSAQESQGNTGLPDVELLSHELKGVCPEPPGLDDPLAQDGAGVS

[5] = Solubility in water; assay type: physicochemical
[6] = molecular target: T2, Adenosine receptor A2b (Homo sapiens) (UniProt P29275); assay: Displacement of [3H]DPCPX from human recombinant adenosine A2B receptor expressed in HEK293 cell membrane at 10 uM; assay type: cell membranes
T2 sequence (whole entry): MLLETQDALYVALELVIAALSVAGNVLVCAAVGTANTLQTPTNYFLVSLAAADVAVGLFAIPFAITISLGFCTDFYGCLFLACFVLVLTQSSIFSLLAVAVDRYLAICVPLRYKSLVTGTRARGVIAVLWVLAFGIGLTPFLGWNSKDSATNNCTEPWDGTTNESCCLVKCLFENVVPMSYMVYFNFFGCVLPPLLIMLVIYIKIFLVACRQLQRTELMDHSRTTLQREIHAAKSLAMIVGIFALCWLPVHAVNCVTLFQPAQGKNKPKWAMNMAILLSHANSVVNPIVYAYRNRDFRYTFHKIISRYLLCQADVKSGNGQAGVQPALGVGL

[7] = molecular target: T3, Adenosine receptor A1 (Homo sapiens) (UniProt P30542); assay: Displacement of [3H]DPCPX from human recombinant adenosine A1 receptor expressed in CHO-A1 cell membrane at 10 uM; assay type: cell membranes
T3 sequence (whole entry): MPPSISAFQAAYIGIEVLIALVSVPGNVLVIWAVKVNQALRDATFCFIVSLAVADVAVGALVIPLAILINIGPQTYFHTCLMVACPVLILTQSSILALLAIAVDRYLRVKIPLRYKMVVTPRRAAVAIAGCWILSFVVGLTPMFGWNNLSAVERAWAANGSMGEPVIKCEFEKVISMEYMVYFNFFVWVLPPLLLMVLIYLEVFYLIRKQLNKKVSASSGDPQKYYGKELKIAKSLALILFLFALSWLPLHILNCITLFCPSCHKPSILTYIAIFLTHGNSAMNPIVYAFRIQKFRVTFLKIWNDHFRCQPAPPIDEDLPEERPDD

[8] = molecular target: T4, Adenosine receptor A1 (Homo sapiens, UniProt P30542); assay: Displacement of [3H]DPCPX from human recombinant adenosine A1 receptor expressed in CHO-A1 cell membrane; assay type: cell membranes
T4 sequence (P30542 whole entry): T3 sequence (whole entry)

Compound | inhibition [1] [%] | solubility [2] [mM] | solubility [3] | inhibition [4] [%] | solubility [5] [mM] | inhibition [6] [%] | inhibition [7] [%] | Ki [8] [µM]
COCCOCCOCc1nc2c([nH]1)c(=O)n(C)c(=O)n2C | 1 | 10 (≈ 3120 µg/mL) | Insoluble | 20 | 14 (≈ 4370 µg/mL) | 10 | 37 | 
Cn1c(=O)c2c(ncn2CCOCCOCCOCCN=[N+]=[N-])n(C)c1=O | 2 |  |  | 17 |  | 3 | 24 | 
C=CCCCCCCCCCOCCOCCOCCOCCn1cnc2c1c(=O)n(C)c(=O)n2C | 19 |  |  | 18 |  | 47 | 53 | 5

Source: ChEMBL document CHEMBL1157661 (Bioorg Med Chem, 2010)
